Values after ≈ are worked out from the molar mass of the structure shown. Marks after values point to notes of the source that are not given here.

From patent US7115592B2, “Phosphonate substituted pyrimidine compounds and methods for therapy” (priority 2003, dated 2006) come the findings set out here.

The subject of one data set is HIV. The experiment in a line: microbe, parasite or virus in culture. The conditions noted are these: for EC50: Human immunodeficiency virus 1, HIV type not specified, read-out: inhibitory against HIV at. It counts as cell-based.
For data set [1], the system named is MSV-induced tumor cell formation. Description: Inhibitory activity against MSV-induced tumor cell formation in newborn NMRI mice. It counts as in vivo. The note with it: for % survivors on day 12 / % tumor free on day 12 / Mean day of animal death / Mean day of tumor initiation: virus i.m. at day 1; for tumor formation: at 50 and 20 mg/kg; for order of antiviral efficacy: among the 5-cyano, 5-chloro and 5-methyl derivatives. The procedure:
The 5-cyano (Example 8), 5-methyl (Example 5) and 5-chloro-2,4-diamino-6-[2-(phosphonomethoxy)ethoxy]pyrimidine were also evaluated for their antiretroviral activity in MSV-infected newborn NMRI mice in comparison with PMEA and (R)-PMPA. […] At 5 mg/kg, 90% of mice were free from tumor formation in the presence of 5-methyl derivative, compared with 70% and 10% in the presence of PMEA and (R)-PMPA. […] This phenomenon was also seen with PMEA at 50 and 20 mg/kg, but not with (R)-PMPA at 50 mg/kg.
Inhibitory activity of test compounds against MSV-induced tumor cell formation in newborn NMRI mice

The subject of another data set is HIV-1. The experiment in a line: microbe, parasite or virus in culture. Format: cell-based. The note with it: Human immunodeficiency virus 1; read-out: EC50 against HIV-1.
The test system of another data set is HIV-2. The experiment in a line: microbe, parasite or virus in culture. It counts as cell-based. The conditions noted are these: Human immunodeficiency virus 2; read-out: EC50 against HIV-2.
A further data set relates to MSV. The experiment in a line: Antiviral activity against MSV in cell culture. It counts as cell-based, murine (MSV). The note with it: Mus musculus; in vitro; read-out: inhibitory against MSV (EC50).
The next data set has as its system VZV. Description: Anti-VZV activity. Format: cell-based.
A short description of data set [2]: Cytostatic activity in CEM cell cultures. The note with it: human.

As a reminder, the melting point is the temperature, or range, at which the solid turns liquid. Regarding `N#CCc1c(N)nc(N)nc1OCCOCP(=O)(O)O`, the melting point was 258 to 259 °C (dec.).
Same read-out and setting: to `CCOC(=O)Cc1c(N)nc(N)nc1OCCOCP(=O)(O)O` belongs 199 to 200 °C; to `Nc1nc(N)c(C2CC2)c(OCCOCP(=O)(O)O)n1`, 255 to 256 °C; to `Nc1nc(N)c(Cc2ccccc2)c(OCCOCP(=O)(O)O)n1` (hydrate or solvate), 241 to 242 °C.
The same measure, in the same setting: then `Nc1nc(N)c(CC(=O)O)c(OCCOCP(=O)(O)O)n1` (hydrate or solvate), with 228 to 229 °C.
Regarding `Nc1nc(N)c(-c2ccccc2)c(OCCOCP(=O)(O)O)n1` (hydrate or solvate), the melting point is 230 to 231 °C.
In turn, `Nc1nc(N)c(C=O)c(OCCOCP(=O)(O)O)n1` (hydrate or solvate) [Example 9, 5-Formyl-2,4-diamino-6-[2-(phosphonomethoxy)ethoxy]pyrimidine] came in with a melting point of 225 to 227 °C.
Turning to `Nc1cc(OCCOCP(=O)(O)O)nc(N)n1` [5-unsubstituted compound, 2,4-diamino-6-[2-(phosphonomethoxy)ethoxy]pyrimidine, reference compound], in the data set on HIV (ratio of anti-HIV to anti-MSV potency), the “anti-HIV activity less potent than anti-MSV activity” value stood at 20 fold.
Consider `C[C@H](Cn1cnc2c(N)ncnc21)OCP(=O)(O)O` [(R)-PMPA], for which, in data set [1] (5 mg/kg i.p. at days 1-5), the “% survivors on day 12” value turned out to be 100%, the “% tumor free on day 12” value stood at 10%, the “Mean day of animal death” value was over 12 days and the “Mean day of tumor initiation” value is 10.5 ± 2.12 days. Besides, in data set [1] (20 mg/kg i.p. at days 1-5), the “% survivors on day 12” value came out at 100%, the “% tumor free on day 12” value was 100%, the “Mean day of animal death” value was over 12 days and the “Mean day of tumor initiation” value was over 12 days. Further, in data set [1] (50 mg/kg i.p. at days 1-5), the “% survivors on day 12” value is given as 100%, the “% tumor free on day 12” value stood at 100%, the “Mean day of animal death” value is over 12 days and the “Mean day of tumor initiation” value was over 12 days. For the same molecule, the tumor formation result in data set [1] is given as “completely prevented”.
What is called CC50 is the concentration that lowers cell viability or growth by half. In the case of `Cc1c(N)nc(N)nc1OCCOCP(=O)(O)O` [Example 5, 5-Methyl-2,4-diamino-6-[2-(phosphonomethoxy)ethoxy]pyrimidine], the EC50 in the data set on HIV-1 was 0.065 µg/mL (≈ 0.234 µM); in the data set on HIV-2, 0.065 µg/mL (≈ 0.234 µM); in the data set with MSV, 0.04 to 0.06 µg/mL (≈ 0.144 to 0.216 µM). Further, in the data set on VZV, the anti-VZV activity entry is listed as “moderate anti-VZV activity”. Besides, the “% survivors on day 12” value in data set [1] (5 mg/kg i.p. at days 1-5) and in data set [1] (20 mg/kg i.p. at days 1-5) was 100% each time. In addition, the figures for the “% tumor free on day 12” value in data set [1] (5 mg/kg i.p. at days 1-5), in data set [1] (20 mg/kg i.p. at days 1-5) and in data set [1] (50 mg/kg i.p. at days 1-5) were 90%, 100% and 100%, respectively. Further, the “Mean day of animal death” value in data set [1] (5 mg/kg i.p. at days 1-5) is over 12 days; in data set [1] (20 mg/kg i.p. at days 1-5), over 12 days; in data set [1] (50 mg/kg i.p. at days 1-5), 10.1 ± 1.10^b day; in data set [1] (50 mg/kg i.p. at days 1-5, listed as 5-methyl-2,4-diamino-6-[2-(phosphonomethoxy)ethoxy]pyrimidine), 10.1 days. Further, the figures for the “Mean day of tumor initiation” value in data set [1] (5 mg/kg i.p. at days 1-5), in data set [1] (20 mg/kg i.p. at days 1-5) and in data set [1] (50 mg/kg i.p. at days 1-5) were 8.0 days, over 12 days and over 12 days, respectively. For the same molecule, in data set [1], the “order of antiviral efficacy” value was “most effective agent”. The tumor formation result in data set [1] is recorded as “completely prevented”. In data set [2], this molecule registered a CC50 of 1.3 to 4.1 µg/mL (≈ 4.67 to 14.7 µM).
With `Nc1nc(N)c(Cl)c(OCCOCP(=O)(O)O)n1` [Example 5-Cl, 5-chloro-2,4-diamino-6-[2-(phosphonomethoxy)ethoxy]pyrimidine], in data set [1] (5 mg/kg i.p. at days 1-5), the “% survivors on day 12” value is listed as “(45%)”, the “Mean day of animal death” value is 11.5 ± 0.69 days and the “Mean day of tumor initiation” value is 6.70 ± 0.80 days. In data set [1] (20 mg/kg i.p. at days 1-5), the “% survivors on day 12” value is given as “(80%)”, the “% tumor free on day 12” value turned out to be 10%, the “Mean day of animal death” value amounted to 11.8 ± 0.50 days and the “Mean day of tumor initiation” value worked out at 7.44 ± 1.42 days. Moreover, in data set [1] (50 mg/kg i.p. at days 1-5), the “% survivors on day 12” value came to 100%, the “% tumor free on day 12” value is 15%, the “Mean day of animal death” value is over 12 days and the “Mean day of tumor initiation” value is 8.76 ± 1.86 days.
For `N#Cc1c(N)nc(N)nc1OCCOCP(=O)(O)O` [Example 8, 5-Cyano-2,4-diamino-6-[2-(phosphonomethoxy)ethoxy]pyrimidine], the results for the EC50 with HIV and in the data set on MSV were 0.8 to 3.3 µg/mL (≈ 2.77 to 11.4 µM) and 2.7 to 6 µg/mL (≈ 9.34 to 20.7 µM), respectively. Moreover, the “Mean day of animal death” value in data set [1] (5 mg/kg i.p. at days 1-5) was 10.9 ± 0.57 days; in data set [1] (20 mg/kg i.p. at days 1-5), 11.5 ± 0.58 days; in data set [1] (50 mg/kg i.p. at days 1-5) it was over 12 days. The results for the “Mean day of tumor initiation” value in data set [1] (5 mg/kg i.p. at days 1-5), in data set [1] (20 mg/kg i.p. at days 1-5) and in data set [1] (50 mg/kg i.p. at days 1-5) were 6.40 ± 0.70 days, 7.20 ± 1.03 days and 8.20 ± 1.62 days, respectively. For the same molecule, the “% survivors on day 12” value in data set [1] (20 mg/kg i.p. at days 1-5) is given as “(60%)”; in data set [1] (50 mg/kg i.p. at days 1-5) it was 100%. In addition, in data set [1], the “order of antiviral efficacy” value is “least effective agent”.
`Nc1nc(N)c(C=O)c(OCCOCP(=O)(O)O)n1` [Example 9, 5-Formyl-2,4-diamino-6-[2-(phosphonomethoxy)ethoxy]pyrimidine]: the EC50 lay in the range of 0.8 to 3.3 µg/mL (≈ 2.74 to 11.3 µM) in the data set on HIV and 2.7 to 6 µg/mL (≈ 9.24 to 20.5 µM) with MSV.
With `Nc1ncnc2c1ncn2CCOCP(=O)(O)O` [PMEA, 9-(2-phosphonylmethoxyethyl)adenine], in data set [1] (5 mg/kg i.p. at days 1-5), the “% survivors on day 12” value is 100%, the “% tumor free on day 12” value is given as 70%, the “Mean day of animal death” value was over 12 days and the “Mean day of tumor initiation” value was found to be 9.33 ± 0.58 days. Further, in data set [1] (20 mg/kg i.p. at days 1-5), the “% survivors on day 12” value is listed as 90%, the “% tumor free on day 12” value stood at 100%, the “Mean day of animal death” value worked out at 9.0 days and the “Mean day of tumor initiation” value is over 12 days. Further, in data set [1] (50 mg/kg i.p. at days 1-5), the “% tumor free on day 12” value is reported as 100%, the “Mean day of animal death” value is listed as 8.80 ± 0.63^b day and the “Mean day of tumor initiation” value is over 12 days. Further, the tumor formation entry in data set [1] is “completely prevented”. Also, in data set [2], the CC50 stood at 11 µg/mL (≈ 40.3 µM).
